# Molecular target: T1, recombinant human ALX receptor (Homo sapiens, UniProt P25090)
# T1 construct: expressed in transfected cells; host or cells: HEK293 (HEK293-hALXR-Gα16)
# T1 sequence (P25090 1-351): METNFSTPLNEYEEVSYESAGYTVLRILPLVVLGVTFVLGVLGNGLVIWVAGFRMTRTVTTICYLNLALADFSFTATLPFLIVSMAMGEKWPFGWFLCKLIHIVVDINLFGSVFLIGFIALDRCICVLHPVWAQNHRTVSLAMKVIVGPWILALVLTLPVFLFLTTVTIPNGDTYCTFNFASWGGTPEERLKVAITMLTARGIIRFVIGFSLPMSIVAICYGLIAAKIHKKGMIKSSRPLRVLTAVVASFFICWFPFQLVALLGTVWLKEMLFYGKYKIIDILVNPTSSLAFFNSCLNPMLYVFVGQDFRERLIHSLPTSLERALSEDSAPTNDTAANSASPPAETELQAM
# Test: Intracellular calcium measurements (FLIPR), ALX receptor agonistic activity
# Assay type: cell-based
# Details: HEK293-hALXR-Gα16 cells; Table 1, exemplified compounds
# Description: The ALX receptor agonistic activity of the compounds of formula (I) is determined in accordance with the following experimental method.
# Intracellular Calcium Measurements:
# Cells expressing recombinant human ALX receptor and the G-protein Gα16 (HEK293-hALXR-Gα16) were grown to 80% confluency in Growing Medium (GM). Cells were detached from culture dishes with a cell dissociation buffer (Invitrogen, 13151-014), and collected by centrifugation at 1,000 rpm at rt for 5 min in Assay Buffer (AB) (equal parts of Hank's BSS (Gibco, 14065-049) and DMEM without Phenol Red (Gibco, 11880-028)). After 60 min incubation at 37° C. under 5% CO2 in AB supplemented with 1 μM Fluo-4 (AM) (Invitrogen, F14202) and 20 mM HEPES (Gibco, 15630-056), the cells were washed and resuspended in AB. They were then seeded onto 384-well FLIPR assay plates (Greiner, 781091) at 50,000 cells in 70 μl per well and sedimented by centrifugation at 1,000 rpm for 1 min. Stock solutions of test compounds were made up at a concentration of 10 mM in DMSO, and serially diluted in AB to concentrations required for activation dose response curves. WKYMVm (Phoenix Peptides) was used as a reference agonist. A FLIPR Tetra instrument (Molecular Devices) was operated according to the manufacturer's standard instructions, adding 4 μl of test compound dissolved at 10 mM in DMSO and diluted prior to the experiment in assay buffer to obtain the desired final concentration. Changes in fluorescence were monitored before and after the addition of test compounds at lex=488 nm and lem=540 nm. Emission peak values above base level after compounds addition were exported after base line subtraction. Values were normalized to high-level control (WKYMVm compound, 10 nM final concentration) after subtraction of the base line value (AB addition).
row,SMILES,EC50 [nM]
1,"COCc1coc(Cn2ncc(NC(=O)c3ncoc3-c3cccc(C)c3)n2)n1 [Example 10, N-(2-((4-(Methoxymethyl)oxazol-2-yl)methyl)-2H-1,2,3-triazol-4-yl)-5-(m-tolyl)oxazole-4-carboxamide]",4.6
2,"COCc1coc(Cn2ncc(NC(=O)c3nc(C)oc3-c3cccc(F)c3)n2)n1 [Example 9, 5-(3-Fluorophenyl)-N-(2-((4-(methoxymethyl)oxazol-2-yl)methyl)-2H-1,2,3-triazol-4-yl)-2-methyloxazole-4-carboxamide]",3.7
3,"COCc1coc(Cn2ncc(NC(=O)c3nc(C)oc3-c3cccc(OC)c3)n2)n1 [Example 8, N-(2-((4-(Methoxymethyl)oxazol-2-yl)methyl)-2H-1,2,3-triazol-4-yl)-5-(3-methoxyphenyl)-2-methyloxazole-4-carboxamide]",8.8
4,"COCc1coc(Cn2ncc(NC(=O)c3ncoc3-c3cccc(Cl)c3)n2)n1 [Example 6, 5-(3-Chlorophenyl)-N-(2-((4-(methoxymethyl)oxazol-2-yl)methyl)-2H-1,2,3-triazol-4-yl)oxazole-4-carboxamide]",4
5,"COCc1coc(Cn2ncc(NC(=O)c3ncoc3-c3cccc(OC)c3)n2)n1 [Example 7, N-(2-((4-(Methoxymethyl)oxazol-2-yl)methyl)-2H-1,2,3-triazol-4-yl)-5-(3-methoxyphenyl)oxazole-4-carboxamide]",17.5
6,"COCc1coc(Cn2ncc(NC(=O)c3nc(C)oc3-c3cccc(Cl)c3)n2)n1 [Example 4, 5-(3-Chlorophenyl)-N-(2-((4-(methoxymethyl)oxazol-2-yl)methyl)-2H-1,2,3-triazol-4-yl)-2-methyloxazole-4-carboxamide]",2.1
7,"COC(C)(C)c1coc(Cn2ncc(NC(=O)c3nc(C)oc3-c3cccc(C)c3)n2)n1 [Example 1, N-(2-((4-(2-Methoxypropan-2-yl)oxazol-2-yl)methyl)-2H-1,2,3-triazol-4-yl)-2-methyl-5-(m-tolyl)oxazole-4-carboxamide]",6.6
8,"COCc1coc(Cn2ncc(NC(=O)c3nc(C)oc3-c3ccccc3)n2)n1 [Example 3, N-(2-((4-(Methoxymethyl)oxazol-2-yl)methyl)-2H-1,2,3-triazol-4-yl)-2-methyl-5-phenyloxazole-4-carboxamide]",4.3
9,"COCc1coc(Cn2ncc(NC(=O)c3nc(C)oc3-c3cccc(C(F)(F)F)c3)n2)n1 [Example 5, N-(2-((4-(Methoxymethyl)oxazol-2-yl)methyl)-2H-1,2,3-triazol-4-yl)-2-methyl-5-(3-(trifluoromethyl)phenyl)oxazole-4-carboxamide]",5.6
10,"COCc1coc(Cn2ncc(NC(=O)c3nc(C4CC4)oc3-c3cccc(C)c3)n2)n1 [Example 12, 2-Cyclopropyl-N-(2-((4-(methoxymethyl)oxazol-2-yl)methyl)-2H-1,2,3-triazol-4-yl)-5-(m-tolyl)oxazole-4-carboxamide]",11.6

# The remaining lines, values ahead:
row,EC50 [nM],SMILES
1,8.6,"CCOCc1coc(Cn2ncc(NC(=O)c3ncoc3-c3ccccc3)n2)n1 [Example 15, N-(2-((4-(ethoxymethyl)oxazol-2-yl)methyl)-2H-1,2,3-triazol-4-yl)-5-phenyloxazole-4-carboxamide]"
2,5,"COCc1coc(Cn2ncc(NC(=O)c3ncoc3-c3ccccc3)n2)n1 [Example 13, N-(2-((4-(Methoxymethyl)oxazol-2-yl)methyl)-2H-1,2,3-triazol-4-yl)-5-phenyloxazole-4-carboxamide]"
3,6.7,"CCOCc1coc(Cn2ncc(NC(=O)c3nc(C)oc3-c3cccc(C)c3)n2)n1 [Example 14, N-(2-((4-(ethoxymethyl)oxazol-2-yl)methyl)-2H-1,2,3-triazol-4-yl)-2-methyl-5-(m-tolyl)oxazole-4-carboxamide]"

# Same assay, conditions: HEK293-hALXR-Gα16 cells; Table 2, compound failing within formula I of WO 2009/077990
row,SMILES,EC50 [nM]
1,CC(=O)c1nc(Cn2ncc(NC(=O)c3nc(C)oc3-c3cccc(C)c3)n2)co1,0.9
2,CC(=O)c1nc(Cn2ncc(NC(=O)c3ncoc3-c3ccccc3)n2)co1,1.5

# The next lines start with the values.
row,EC50 [nM],SMILES
1,93,CC(=O)c1nc(Cn2ncc(NC(=O)c3ncoc3-c3ccccc3)n2)cs1 [example 45]
2,8.1,CC(=O)c1csc(Cn2ncc(NC(=O)c3ncoc3-c3ccccc3)n2)n1 [example 39]
3,88,CC(=O)c1cnc(Cn2ncc(NC(=O)c3ncoc3-c3ccccc3)n2)s1 [example 73]
4,73,CC(=O)c1ncc(Cn2ncc(NC(=O)c3ncoc3-c3ccccc3)n2)s1 [example 67]

# Same assay, conditions: HEK293-hALXR-Gα16 cells; Table 2, reference compounds
row,SMILES,EC50 [nM]
1,"COCc1ccc(Cn2ncc(NC(=O)c3ncoc3-c3ccccc3)n2)o1 [reference compound 3, N-(2-((5-(methoxymethyl)furan-2-yl)methyl)-2H-1,2,3-triazol-4-yl)-5-phenyloxazole-4-carboxamide]",498
2,"COCc1ncc(Cn2ncc(NC(=O)c3ncoc3-c3ccccc3)n2)s1 [reference compound 7, N-(2-((2-(methoxymethyl)thiazol-5-yl)methyl)-2H-1,2,3-triazol-4-yl)-5-phenyloxazole-4-carboxamide]",8130
3,"COCc1csc(Cn2ncc(NC(=O)c3ncoc3-c3ccccc3)n2)n1 [reference compound 5, N-(2-((4-(methoxymethyl)thiazol-2-yl)methyl)-2H-1,2,3-triazol-4-yl)-5-phenyloxazole-4-carboxamide]",48
4,"COCc1ncc(Cn2ncc(NC(=O)c3nc(C)oc3-c3cccc(C)c3)n2)s1 [reference compound 1, N-(2-((2-(Methoxymethyl)thiazol-5-yl)methyl)-2H-1,2,3-triazol-4-yl)-2-methyl-5-(m-tolyl)oxazole-4-carboxamide]",4810
5,"COCc1nc(Cn2ncc(NC(=O)c3nc(C)oc3-c3cccc(C)c3)n2)co1 [reference compound 10, N-(2-((2-(Methoxymethyl)oxazol-4-yl)methyl)-2H-1,2,3-triazol-4-yl)-2-methyl-5-(m-tolyl)oxazole-4-carboxamide]",8.1
6,"COC(C)(C)c1nc(Cn2ncc(NC(=O)c3ncoc3-c3ccccc3)n2)co1 [reference compound 9, N-(2-((2-(2-methoxypropan-2-yl)oxazol-4-yl)methyl)-2H-1,2,3-triazol-4-yl)-5-phenyloxazole-4-carboxamide]",685
7,"COCc1cnc(Cn2ncc(NC(=O)c3ncoc3-c3ccccc3)n2)s1 [reference compound 8, N-(2-((5-(methoxymethyl)thiazol-2-yl)methyl)-2H-1,2,3-triazol-4-yl)-5-phenyloxazole-4-carboxamide]",5950
8,"COCc1nc(Cn2ncc(NC(=O)c3ncoc3-c3ccccc3)n2)cs1 [reference compound 6, N-(2-((2-(methoxymethyl)thiazol-4-yl)methyl)-2H-1,2,3-triazol-4-yl)-5-phenyloxazole-4-carboxamide]",146
9,"COCc1ccc(Cn2ncc(NC(=O)c3ncoc3-c3ccccc3)n2)s1 [reference compound 4, N-(2-((5-(methoxymethyl)thiophen-2-yl)methyl)-2H-1,2,3-triazol-4-yl)-5-phenyloxazole-4-carboxamide]",2300
10,"COCc1cnc(Cn2ncc(NC(=O)c3nc(C)oc3-c3cccc(C)c3)n2)s1 [reference compound 2, N-(2-((5-(Methoxymethyl)thiazol-2-yl)methyl)-2H-1,2,3-triazol-4-yl)-2-methyl-5-(m-tolyl)oxazole-4-carboxamide]",2540

# From patent publication US8846733B2, “Oxazolyl-methylether derivatives as ALX receptor agonists” (Actelion Pharmaceuticals Ltd., priority 2010, dated 2014)
